The values that follow come from EP3722296B1, “DIHYDRONAPHTHYRIDINES AND RELATED COMPOUNDS USEFUL AS KINASE INHIBITORS FOR THE TREATMENT OF PROLIFERATIVE DISEASES” (Deciphera Pharmaceuticals, LLC, priority 2012, dated 2013).

Type in all cases: cell-based
For one experiment, the system named is GIST430 cells. Put plainly: GIST 430 Cell Proliferation Assay. The note with it: Homo sapiens, 120 h, 115 hours + 5 hours resazurin. The protocol:
GIST48, GIST430, and GIST882 cells were obtained from J. Fletcher (Brigham and Women's Hospital, Boston, MA). GIST T1 cells were obtained from B. Rubin (Cleveland Clinic, Cleveland, OH) and Professor Takahiro Taguchi (Kochi Medical School, Nankoku, Kochi, Japan). Briefly, GIST48 and GIST 882 cells were grown in RPMI 1640 medium supplemented with 15% characterized fetal bovine serum (Invitrogen, Carlsbad, CA), 1 unit/mL penicillin G, 1 µg/ml streptomycin, and 0.29 mg/mL L-glutamine at 37 °C, 5% CO2, and 95% humidity. GIST430 cells were grown in Ham's F10 medium supplemented with 15% characterized fetal bovine serum (Invitrogen, Carlsbad, CA), 30 mg/L bovine pituitary extract (BD Biosciences, San Jose, CA), 0.5% Mito+ serum extender (BD Biosciences, San Jose, CA), 1 unit/mL penicillin G, 1 µg/ml streptomycin, and 0.29 mg/mL L-glutamine at 37 °C, 5%CO2, 95% humidity. GIST T1 cells were grown in DMEM medium supplemented with 10% characterized fetal bovine serum (Invitrogen, Carlsbad, CA), 1 unit/mL penicillin G, 1 µg/ml streptomycin, and 0.29 mg/mL L-glutamine at 37 °C, 5% CO2, and 95% humidity.
A serial dilution of test compound was dispensed into a 384-well black clear bottom plate (Corning, Corning, NY). Two thousand five-hundred cells were added per well in 50 µL complete growth medium. Plates were incubated for 115 hours at 37°C, 5% CO2, 95% humidity. At the end of the incubation period 10 µL of a 440 µM solution of resazurin (Sigma, St. Louis, MO) in PBS was added to each well and incubated for an additional 5 hours at 37°C, 5% CO2, 95% humidity. Plates were read on a Synergy2 reader (Biotek, Winooski, VT) using an excitation of 540 nm and an emission of 600 nm.
(In general: Resazurin is reduced to fluorescent resorufin, in cell work by metabolically active cells.)

A further experiment addresses T1, D816V KIT (Homo sapiens, UniProt P10721, D816V).
T1 construct: V5 (vector-encoded); expressed in transfected cells; host or cells: CHO K1
Put plainly: CHO K1 phospho-KIT Western. The conditions noted are these: transient transfected CHO K1 cells, phospho-KIT (Tyr719), read-out: KIT kinase domain mutations (primary/secondary): D816V. How it is done:
(§1) Cells were washed with PBS, then lysed. Cell lysates were separated by SDS-PAGE and transferred to PVDF. Phospho-KIT (Tyr719) was detected using an antibody from Cell Signaling Technology (Beverly, MA), ECL Plus detection reagent (GE Healthcare, Piscataway, NJ) and a Molecular Devices Storm 840 phosphorimager in fluorescence mode. Blots were stripped and probed for total KIT using an antibody from Santa Cruz Biotech (Santa Cruz, CA). IC50 values were calculated using Prism software (Graphpad, San Diego, CA).

The target of the next experiment is T2, D820A KIT (Homo sapiens, UniProt P10721, D820A).
T2 construct: V5 (vector-encoded); expressed in transfected cells; host or cells: CHO K1
T2 sequence (P10721 26-976 D820A): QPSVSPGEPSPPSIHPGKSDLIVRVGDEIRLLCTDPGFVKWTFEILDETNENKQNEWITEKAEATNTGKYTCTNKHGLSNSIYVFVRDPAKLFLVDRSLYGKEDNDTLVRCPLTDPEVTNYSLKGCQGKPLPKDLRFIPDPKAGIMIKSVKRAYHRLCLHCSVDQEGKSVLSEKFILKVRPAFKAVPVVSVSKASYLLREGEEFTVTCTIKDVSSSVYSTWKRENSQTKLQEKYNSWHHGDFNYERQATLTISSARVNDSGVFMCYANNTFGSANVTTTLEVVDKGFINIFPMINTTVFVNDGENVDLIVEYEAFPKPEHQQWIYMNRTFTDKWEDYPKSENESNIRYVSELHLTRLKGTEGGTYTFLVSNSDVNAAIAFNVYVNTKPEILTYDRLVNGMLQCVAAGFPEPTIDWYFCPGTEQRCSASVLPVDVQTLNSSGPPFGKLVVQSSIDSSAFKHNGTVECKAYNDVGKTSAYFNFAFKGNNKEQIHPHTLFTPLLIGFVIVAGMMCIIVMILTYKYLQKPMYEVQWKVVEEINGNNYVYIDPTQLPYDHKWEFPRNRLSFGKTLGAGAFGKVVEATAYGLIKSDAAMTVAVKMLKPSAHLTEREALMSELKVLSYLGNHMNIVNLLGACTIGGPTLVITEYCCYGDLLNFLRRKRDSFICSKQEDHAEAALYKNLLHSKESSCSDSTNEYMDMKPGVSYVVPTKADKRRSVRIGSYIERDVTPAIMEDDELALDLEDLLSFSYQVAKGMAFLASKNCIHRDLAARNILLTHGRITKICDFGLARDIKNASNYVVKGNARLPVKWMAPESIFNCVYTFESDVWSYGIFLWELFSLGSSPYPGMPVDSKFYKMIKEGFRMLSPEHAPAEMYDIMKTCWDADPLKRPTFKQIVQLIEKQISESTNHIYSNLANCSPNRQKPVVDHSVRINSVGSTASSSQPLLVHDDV
Put plainly: CHO K1 phospho-KIT Western. The conditions noted are these: transient transfected CHO K1 cells, phospho-KIT (Tyr719), read-out: KIT kinase domain mutations (primary/secondary): D820A. The protocol: as §1

For experiment [1], the target named is T3, VV559-560 deletion/D816V KIT (Homo sapiens, UniProt P10721, D816V/DEL559-560).
T3 construct: expressed in transfected cells; host or cells: CHO K1
T3 sequence (P10721 with tags, fused parts or gaps DEL559-560/D816V): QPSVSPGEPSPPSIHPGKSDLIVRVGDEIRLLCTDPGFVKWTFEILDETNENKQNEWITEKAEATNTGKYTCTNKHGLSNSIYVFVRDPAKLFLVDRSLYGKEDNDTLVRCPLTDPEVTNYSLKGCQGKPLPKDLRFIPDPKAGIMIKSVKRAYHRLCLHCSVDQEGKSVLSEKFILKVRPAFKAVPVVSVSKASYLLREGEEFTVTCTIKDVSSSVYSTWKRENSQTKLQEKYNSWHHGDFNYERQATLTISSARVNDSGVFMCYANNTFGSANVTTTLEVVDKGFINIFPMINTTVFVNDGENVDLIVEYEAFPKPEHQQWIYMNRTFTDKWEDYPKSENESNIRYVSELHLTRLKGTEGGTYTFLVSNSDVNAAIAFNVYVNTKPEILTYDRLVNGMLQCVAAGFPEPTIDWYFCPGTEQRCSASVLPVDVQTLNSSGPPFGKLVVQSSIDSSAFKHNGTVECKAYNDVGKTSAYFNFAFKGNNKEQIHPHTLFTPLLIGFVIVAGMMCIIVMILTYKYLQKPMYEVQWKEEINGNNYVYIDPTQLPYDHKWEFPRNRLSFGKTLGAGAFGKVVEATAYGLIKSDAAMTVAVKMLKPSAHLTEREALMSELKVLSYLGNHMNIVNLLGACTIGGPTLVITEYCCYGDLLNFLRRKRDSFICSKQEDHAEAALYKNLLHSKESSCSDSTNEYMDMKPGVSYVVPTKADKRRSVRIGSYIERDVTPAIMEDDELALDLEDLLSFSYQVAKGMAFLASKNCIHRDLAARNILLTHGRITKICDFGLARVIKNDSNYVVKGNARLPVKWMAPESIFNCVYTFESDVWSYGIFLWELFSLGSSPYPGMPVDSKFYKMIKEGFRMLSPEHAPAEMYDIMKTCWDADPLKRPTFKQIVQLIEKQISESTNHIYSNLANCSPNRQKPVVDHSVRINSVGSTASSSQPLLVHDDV
Put plainly: CHO K1 phospho-KIT Western. The note with it: transient transfected CHO K1 cells, phospho-KIT (Tyr719), read-out: KIT kinase domain mutations (primary/secondary): VV559-560 deletion / D816V. The protocol: as §1

The next experiment has as its target T4, V560D/N822K (Homo sapiens, UniProt P10721, N822K/V560D).
T4 construct: V5 (vector-encoded); expressed in transfected cells; host or cells: CHO K1
Put plainly: CHO K1 phospho-KIT ELISA. The conditions noted are these: transient transfected CHO K1 cells, phospho-c-KIT (Tyr719), read-out: KIT kinase domain mutations (primary/secondary): V560D / N822K. In general terms: In an ELISA, binding on a coated surface is turned into a signal by an enzyme label.

The next experiment has as its target T5, V560D/Y823D (Homo sapiens, UniProt P10721, V560D/Y823D).
T5 construct: V5 (vector-encoded); expressed in transfected cells; host or cells: CHO K1
Put plainly: CHO K1 phospho-KIT ELISA. The note with it: transient transfected CHO K1 cells, phospho-c-KIT (Tyr719), read-out: KIT kinase domain mutations (primary/secondary): V560D / Y823D.

Experiment [2] has as its target T6, AY502 duplication/D816G KIT (Homo sapiens, UniProt P10721, D816G/DUP502-503).
T6 construct: V5 (vector-encoded); expressed in transfected cells; host or cells: CHO K1
Put plainly: CHO K1 phospho-KIT ELISA. The conditions noted are these: transient transfected CHO K1 cells, phospho-c-KIT (Tyr719), read-out: KIT kinase domain mutations (primary/secondary): AY502 duplication / D816G.

In experiment [3] the target is T7, WKV557-559 deletion/C557insertion/D820A (Homo sapiens, UniProt P10721, D820A/DEL557-558/V559C).
T7 construct: V5 (vector-encoded); expressed in transfected cells; host or cells: CHO K1
T7 sequence (P10721 with tags, fused parts or gaps DEL557-558/V559C/D820A): as the sequence (P10721 with tags, fused parts or gaps DEL559-560/D816V) above, with W532C, K533V, V789D, D793A counted along it
Put plainly: CHO K1 phospho-KIT ELISA. The conditions noted are these: transient transfected CHO K1 cells, phospho-c-KIT (Tyr719), read-out: KIT kinase domain mutations (primary/secondary): WKV557-559 deletion.

T5 sequence (P10721 26-976 V560D/Y823D): as the sequence (P10721 26-976 D820A) above, with V535D, A795D, Y798D counted along it
T4 sequence (P10721 26-976 V560D/N822K): as the sequence (P10721 26-976 D820A) above, with V535D, A795D, N797K counted along it
T1 sequence (P10721 26-976 D816V): as the sequence (P10721 26-976 D820A) above, with D791V, A795D counted along it
T6 sequence (P10721 with tags, fused parts or gaps DUP502-503/D816G): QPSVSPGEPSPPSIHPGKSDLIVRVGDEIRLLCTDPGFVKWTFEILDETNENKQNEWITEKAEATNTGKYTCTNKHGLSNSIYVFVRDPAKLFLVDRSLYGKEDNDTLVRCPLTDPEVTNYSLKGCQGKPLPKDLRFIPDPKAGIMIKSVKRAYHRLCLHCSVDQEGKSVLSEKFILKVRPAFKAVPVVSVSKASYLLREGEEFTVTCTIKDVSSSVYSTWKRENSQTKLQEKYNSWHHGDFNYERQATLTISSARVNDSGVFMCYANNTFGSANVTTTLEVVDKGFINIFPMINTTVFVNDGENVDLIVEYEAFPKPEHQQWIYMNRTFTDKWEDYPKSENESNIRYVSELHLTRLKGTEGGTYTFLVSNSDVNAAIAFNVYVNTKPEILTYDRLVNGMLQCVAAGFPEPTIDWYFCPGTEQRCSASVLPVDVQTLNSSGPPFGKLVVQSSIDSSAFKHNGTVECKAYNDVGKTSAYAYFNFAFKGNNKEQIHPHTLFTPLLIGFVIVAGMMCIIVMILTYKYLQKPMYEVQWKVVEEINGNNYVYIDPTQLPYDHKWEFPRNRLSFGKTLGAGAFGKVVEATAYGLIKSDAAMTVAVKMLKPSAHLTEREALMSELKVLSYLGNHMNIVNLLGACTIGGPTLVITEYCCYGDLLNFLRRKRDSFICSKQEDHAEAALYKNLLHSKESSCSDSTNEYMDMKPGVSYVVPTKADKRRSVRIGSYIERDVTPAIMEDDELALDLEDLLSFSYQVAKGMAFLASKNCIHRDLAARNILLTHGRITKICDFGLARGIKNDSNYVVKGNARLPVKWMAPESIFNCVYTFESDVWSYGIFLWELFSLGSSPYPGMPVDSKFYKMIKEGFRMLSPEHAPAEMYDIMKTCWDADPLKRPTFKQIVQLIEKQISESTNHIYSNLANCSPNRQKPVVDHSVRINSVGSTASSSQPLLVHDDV

As to `CCn1c(=O)c(-c2cc(NC(=O)Nc3ccccc3)c(F)cc2C)cc2cnc(NC)cc21` [Example 23, 1-(5-(1-ethyl-7-(methylamino)-2-oxo-1,2-dihydro-1,6-naphthyridin-3-yl)-2-fluoro-4-methylphenyl)-3-phenylurea], the IC50 with GIST430 cells was 10 to 100 nM; on D816V KIT, more than 1000 nM; on D820A KIT, 10 to 100 nM; in experiment [1], 100 to 1000 nM; on V560D/N822K it was 10 to 100 nM; at V560D/Y823D, less than 10 nM. Further, the IC50 in experiment [2] and in experiment [3] was 10 to 100 nM each time.
Consider `CCn1c(=O)c(-c2cc(NC(=O)Nc3csc4ccccc34)c(F)cc2Cl)cc2cnc(NC)cc21` [Example 32, 1-(benzo[b]thiophen-3-yl)-3-(4-chloro-5-(1-ethyl-7-(methylamino)-2-oxo-1,2-dihydro-1,6-naphthyridin-3-yl)-2-fluorophenyl)urea], for which the IC50 in the experiment on GIST430 cells lay within 10 to 100 nM.
Still for that read-out and setting: with `CCn1c(=O)c(-c2cc(NC(=O)Nc3ccccc3)c(F)cc2Cl)cc2cnc(NC)cc21` [Example 3, 1-(4-chloro-5-(1-ethyl-7-(methylamino)-2-oxo-1,2-dihydro-1,6-naphthyridin-3-yl)-2-fluorophenyl)-3-phenylurea] the figure was 10 to 100 nM; with `CCn1c(=O)c(-c2cc(NC(=O)Nc3ccccc3)c(F)cc2Cl)cc2cnc(NCCOC)cc21` [Example 27, 1-(4-chloro-5-(1-ethyl-7-(2-methoxyethylamino)-2-oxo-1,2-dihydro-1,6-naphthyridin-3-yl)-2-fluorophenyl)-3-phenylurea], 100 to 1000 nM.
On the same count and under the same terms, then `CCn1c(=O)c(-c2cc(NC(=O)Nc3cccc(F)c3)c(F)cc2C)cc2cnc(NC)cc21` [Example 44, 1-(5-(1-ethyl-7-(methylamino)-2-oxo-1,2-dihydro-1,6-naphthyridin-3-yl)-2-fluoro-4-methylphenyl)-3-(3-fluorophenyl)urea], with 10 to 100 nM.
As to `CCn1c(=O)c(-c2cc(NC(=O)Nc3csc4ccccc34)c(F)cc2C)cc2cnc(NC)cc21` [Example 59, 1-(benzo[b]thiophen-3-yl)-3-(5-(1-ethyl-7-(methylamino)-2-oxo-1,2-dihydro-1,6-naphthyridin-3-yl)-2-fluoro-4-methylphenyl)urea], the IC50 on D816V KIT is less than 10 nM; at D820A KIT, 10 to 100 nM; in experiment [1] it was 10 to 100 nM; on V560D/N822K, less than 10 nM; on V560D/Y823D, less than 10 nM; in experiment [3], less than 10 nM.
